Reference: patent US10000474B2, “Histone deacetylase inhibitors and uses thereof” (MUSC FOUNDATION FOR RESEARCH DEVELOPMENT, priority 2014, dated 2018)

Columns and labels:
Assay type in all cases: biochemical
Details in all cases: test concentration not given; average of triplicate
[1] = target: T1, Recombinant human HDAC3/NcoR2 (Homo sapiens, UniProt O15379); experiment: HDAC inhibitory assay, HDAC3 (Boc-Lys(Ac)-AMC substrate)
T1 construct: purchased BPS Biosciences
Description: (§1) The compounds of Examples 1-12 and 14-16 were evaluated for their ability to act as inhibitors of human HDAC. The compound of Example 13 was not tested. Recombinant human HDAC1, HDAC2, HDAC3/NcoR2, HDAC5, HDAC6, HDAC8, HDAC9, HDAC10 and HDAC11 were purchased from BPS Biosciences. Recombinant human HDAC4 and HDAC7 were purchased from Millipore. The substrate Boc-Lys(Ac)-AMC and Boc-Lys(Tfa)-AMC were purchased from Bachem. The substrate Ac-RHK(Ac)K(Ac)-AMC was purchased from Enzo Life Sciences. Due to the different specific activities of each isoform, different amount of enzyme was used in each isoform screening assay. In these assays, trichostatin A (TSA), suberanilohydroxamic acid and diphenylacetohydroxamic acid (DPAHA) were employed as positive controls. All determinations were carried out in triplicate, and reported values were the average of these determinations, which in no case varied by more than 5%.
(§2) Then 25 μl of the Boc-Lys(Ac)-AMC substrate (50 μM final concentration) was added and incubated at 37° C. for 30-60 min, and followed by adding 50 μl of developer (1 mg/ml trypsin and 1 μM TSA). The last step was reading the samples in a SpectraMax M5 plate reader (Molecular Devices) at an excitation wavelength of 360 nm and an emission wavelength of 460 nm.

Recombinant human HDAC6 = target: T2, Recombinant human HDAC6 (Homo sapiens, UniProt Q9UBN7); experiment: HDAC inhibitory assay, HDAC6 (Boc-Lys(Ac)-AMC substrate)
T2 construct: purchased BPS Biosciences
T2 sequence (Q9UBN7 1-1215): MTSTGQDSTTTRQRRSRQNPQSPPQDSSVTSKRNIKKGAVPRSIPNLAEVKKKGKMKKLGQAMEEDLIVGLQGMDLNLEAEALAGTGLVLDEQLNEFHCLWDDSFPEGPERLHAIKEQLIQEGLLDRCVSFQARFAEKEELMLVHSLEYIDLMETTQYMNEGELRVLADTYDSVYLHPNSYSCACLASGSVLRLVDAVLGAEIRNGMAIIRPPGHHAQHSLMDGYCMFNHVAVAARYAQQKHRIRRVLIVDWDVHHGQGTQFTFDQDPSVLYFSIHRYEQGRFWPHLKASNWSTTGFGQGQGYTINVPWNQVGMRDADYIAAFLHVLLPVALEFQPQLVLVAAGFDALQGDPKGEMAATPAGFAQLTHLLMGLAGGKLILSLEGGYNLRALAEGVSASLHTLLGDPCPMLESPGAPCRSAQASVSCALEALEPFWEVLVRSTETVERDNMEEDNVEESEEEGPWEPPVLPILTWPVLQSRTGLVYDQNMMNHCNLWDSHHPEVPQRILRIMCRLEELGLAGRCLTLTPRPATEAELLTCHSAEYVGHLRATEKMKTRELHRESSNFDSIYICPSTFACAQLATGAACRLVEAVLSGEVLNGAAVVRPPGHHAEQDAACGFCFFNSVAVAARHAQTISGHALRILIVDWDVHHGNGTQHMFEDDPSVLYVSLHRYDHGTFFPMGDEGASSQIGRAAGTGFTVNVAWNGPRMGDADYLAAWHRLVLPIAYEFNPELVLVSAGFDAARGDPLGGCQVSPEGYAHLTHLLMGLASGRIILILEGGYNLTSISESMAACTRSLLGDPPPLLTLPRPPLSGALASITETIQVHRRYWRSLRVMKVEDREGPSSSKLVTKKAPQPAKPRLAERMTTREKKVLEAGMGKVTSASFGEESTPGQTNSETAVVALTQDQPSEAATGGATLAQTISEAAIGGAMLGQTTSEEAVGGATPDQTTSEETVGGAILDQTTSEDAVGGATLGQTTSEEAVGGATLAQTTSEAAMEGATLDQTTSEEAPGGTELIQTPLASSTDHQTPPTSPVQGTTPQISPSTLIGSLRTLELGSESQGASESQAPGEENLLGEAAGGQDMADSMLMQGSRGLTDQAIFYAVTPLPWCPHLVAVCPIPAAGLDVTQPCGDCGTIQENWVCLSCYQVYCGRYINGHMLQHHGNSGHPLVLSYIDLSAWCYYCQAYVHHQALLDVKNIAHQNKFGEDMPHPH
Description: as §1, §2

Recombinant human HDAC8 = target: T3, Recombinant human HDAC8 (Homo sapiens, UniProt Q9BY41); experiment: HDAC inhibitory assay, HDAC8 (Ac-RHK(Ac)K(Ac)-AMC substrate)
T3 construct: purchased BPS Biosciences
T3 sequence (Q9BY41 1-377): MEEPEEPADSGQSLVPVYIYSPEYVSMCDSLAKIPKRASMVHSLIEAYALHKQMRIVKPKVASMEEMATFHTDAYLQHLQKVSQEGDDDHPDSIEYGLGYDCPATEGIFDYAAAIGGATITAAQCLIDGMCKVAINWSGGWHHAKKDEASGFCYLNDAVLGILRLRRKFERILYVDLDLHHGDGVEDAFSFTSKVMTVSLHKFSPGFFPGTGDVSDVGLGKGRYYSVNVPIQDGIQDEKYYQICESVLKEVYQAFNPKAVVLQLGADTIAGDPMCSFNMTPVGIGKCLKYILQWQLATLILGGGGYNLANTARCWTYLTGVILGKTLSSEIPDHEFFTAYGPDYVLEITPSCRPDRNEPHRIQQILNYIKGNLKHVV
Description: as §1
For evaluating the inhibition of HDAC8, 10 μl of test samples were first incubated with 25 ng HDAC8 (specific activity 298 pmol/min/μg). Then 25 μl of the fluorogenic peptide from p53 residues 379-382 (Ac-RHK(Ac)K(Ac)-AMC, 50 μM final concentration) was added and incubated at 37° C. for 30-60 min, and followed by adding 50 μl of developer (1 mg/ml trypsin and 1 uM TSA). The last step was to read the samples in a SpectraMax M5 plate reader (Molecular Devices) at an excitation wavelength of 360 nm and an emission wavelength of 460 nm.

Recombinant human HDAC9 = target: T4, Recombinant human HDAC9 (Homo sapiens, UniProt Q9UKV0); experiment: HDAC inhibitory assay, HDAC9 (Boc-Lys(Tfa)-AMC substrate)
T4 construct: purchased BPS Biosciences
T4 sequence (Q9UKV0 whole entry): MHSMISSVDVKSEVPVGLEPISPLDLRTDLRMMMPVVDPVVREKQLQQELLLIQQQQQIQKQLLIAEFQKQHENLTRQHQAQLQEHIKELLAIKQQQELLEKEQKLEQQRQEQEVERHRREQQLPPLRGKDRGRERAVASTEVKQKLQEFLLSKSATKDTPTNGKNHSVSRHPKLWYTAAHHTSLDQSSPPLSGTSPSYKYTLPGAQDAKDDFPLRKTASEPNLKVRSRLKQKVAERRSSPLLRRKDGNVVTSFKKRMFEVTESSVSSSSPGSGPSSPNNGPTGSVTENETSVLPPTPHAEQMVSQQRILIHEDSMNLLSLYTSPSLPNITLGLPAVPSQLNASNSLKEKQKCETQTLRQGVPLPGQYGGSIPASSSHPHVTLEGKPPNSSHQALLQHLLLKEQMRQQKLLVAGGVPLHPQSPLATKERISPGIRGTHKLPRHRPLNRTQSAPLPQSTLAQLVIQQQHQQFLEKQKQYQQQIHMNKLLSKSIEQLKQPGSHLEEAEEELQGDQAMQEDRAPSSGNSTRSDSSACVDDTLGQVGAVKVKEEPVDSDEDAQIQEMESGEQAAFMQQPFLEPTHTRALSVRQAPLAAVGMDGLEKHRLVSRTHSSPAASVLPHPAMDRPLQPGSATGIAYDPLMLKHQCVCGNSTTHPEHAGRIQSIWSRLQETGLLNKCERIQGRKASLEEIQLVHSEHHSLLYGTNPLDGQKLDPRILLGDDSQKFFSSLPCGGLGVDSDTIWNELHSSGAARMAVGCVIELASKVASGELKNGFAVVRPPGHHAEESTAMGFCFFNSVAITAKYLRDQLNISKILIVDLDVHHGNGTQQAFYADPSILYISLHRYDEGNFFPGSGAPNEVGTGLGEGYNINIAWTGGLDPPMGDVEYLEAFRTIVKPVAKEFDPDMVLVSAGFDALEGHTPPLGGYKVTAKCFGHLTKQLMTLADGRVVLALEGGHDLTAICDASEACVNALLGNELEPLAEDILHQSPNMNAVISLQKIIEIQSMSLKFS
Description: as §1
For evaluating the inhibition of class IIa HDACs (HDAC4, HDAC5, HDAC7 and HDAC9) and class IV HDAC (HDAC11), 10 μl of test samples were first incubated with 1 ng HDAC4 (specific activity=15400 pmol/min/μg), 5 ng HDAC5 (specific activity=2521 pmol/min/μg), 1 ng HDAC7 (specific activity=26340 pmol/min/μg), 5 ng HDAC9 (specific activity=3000 pmol/min/μg), and 500 ng HDAC11 (specific activity=1.8 pmol/min/μg) respectively. Then 25 μl of the Boc-Lys(Tfa)-AMC substrate (50 μM final concentration) was added and incubated at 37° C. for 30-60 min, and followed by adding 50 μl of developer. The last step was to read the samples in a SpectraMax M5 plate reader (Molecular Devices) at an excitation wavelength of 360 nm and an emission wavelength of 460 nm.

Recombinant human HDAC1 = target: T5, Recombinant human HDAC1 (Homo sapiens, UniProt Q13547); experiment: HDAC inhibitory assay, HDAC1 (Boc-Lys(Ac)-AMC substrate)
T5 construct: purchased BPS Biosciences
T5 sequence (Q13547 whole entry): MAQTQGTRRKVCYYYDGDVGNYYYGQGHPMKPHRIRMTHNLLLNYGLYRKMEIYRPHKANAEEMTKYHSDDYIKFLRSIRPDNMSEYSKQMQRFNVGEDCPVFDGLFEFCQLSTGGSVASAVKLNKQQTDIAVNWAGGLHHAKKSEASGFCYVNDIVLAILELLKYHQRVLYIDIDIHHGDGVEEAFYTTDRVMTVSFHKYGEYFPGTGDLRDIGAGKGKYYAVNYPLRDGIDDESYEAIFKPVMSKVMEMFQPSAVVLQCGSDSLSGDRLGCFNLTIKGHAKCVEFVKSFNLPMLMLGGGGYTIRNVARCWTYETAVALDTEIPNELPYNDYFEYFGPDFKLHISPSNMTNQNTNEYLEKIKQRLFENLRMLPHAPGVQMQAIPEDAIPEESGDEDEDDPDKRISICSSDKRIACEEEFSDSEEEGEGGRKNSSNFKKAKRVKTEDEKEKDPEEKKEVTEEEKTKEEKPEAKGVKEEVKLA
Description: as §1, §2

T1 sequence (O15379 whole entry): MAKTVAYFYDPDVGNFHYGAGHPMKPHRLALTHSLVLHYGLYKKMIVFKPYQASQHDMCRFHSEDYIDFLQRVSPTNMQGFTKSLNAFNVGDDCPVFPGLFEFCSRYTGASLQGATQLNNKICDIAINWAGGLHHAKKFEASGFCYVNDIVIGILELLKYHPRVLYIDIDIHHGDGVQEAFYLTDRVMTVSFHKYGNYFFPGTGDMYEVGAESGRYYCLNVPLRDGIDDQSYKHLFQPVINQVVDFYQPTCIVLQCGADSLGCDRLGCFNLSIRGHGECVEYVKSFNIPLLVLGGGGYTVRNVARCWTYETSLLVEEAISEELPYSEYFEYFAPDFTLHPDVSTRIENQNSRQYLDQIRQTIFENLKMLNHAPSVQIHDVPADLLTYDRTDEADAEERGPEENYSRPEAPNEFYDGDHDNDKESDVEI
T1 sequence (Q9Y618 395-489 partner limits assumed): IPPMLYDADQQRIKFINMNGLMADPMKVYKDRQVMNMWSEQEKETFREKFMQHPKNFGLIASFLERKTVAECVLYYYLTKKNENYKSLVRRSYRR

O=C(O)c1ccc(CNC(=O)c2coc(-c3ccccc3O)n2)cc1 [Example 14, 4-((2-(2-Hydroxyphenyl)oxazole-4-carboxamido)methyl)benzoic acid]
HDAC 3 inhibitory activity [1]: 39.7%
HDAC 6 inhibitory activity (Recombinant human HDAC6): 60.3%
HDAC 8 inhibitory activity (Recombinant human HDAC8): 20.0%
HDAC 9 inhibitory activity (Recombinant human HDAC9): 26.3%
HDAC 1 inhibitory activity (Recombinant human HDAC1): 70.1%
